We go through one compound from the NIST ThermoML archive (doi:10.1021/je8005979).

Numbers after ± are expanded uncertainties.

The conditions of the data set: Crystal; visual observation.

`CCCCCCCCCCCCCCCC(=O)O` [hexadecanoic acid]: the Normal melting temperature turned out to be 62.7 ± 0.4 °C.
